{"source": "patent US20210000757A1", "about": "“TOPICAL COMPOSITION” (Futura Medical Developments Limited, priority 2017, published 2021)", "key": {"[1]": {"experiment": "Safety and pharmacokinetic study of different GTN concentrations compared with sub-lingual Nitrostat", "format": "in vivo, human"}, "[2]": {"tested_on": "mitochondrial and cytosolic aldehyde dehydrogenase", "settings": "in vitro; cited from earlier work"}}}
{"smiles": "O=[N+]([O-])OCC(CO[N+](=O)[O-])O[N+](=O)[O-]", "note": "[GTN, Glyceryl trinitrate]", "values": [{"measurement": "plasma concentration versus dosage level", "setting": "[1]; in vivo", "result": "increased proportionally with increasing dosage level"}, {"measurement": "Tmax", "setting": "[1]; male, human, in vivo, topical or ocular, pharmacokinetic modelling, topical gel, read-out: Tmax of initial zero order entry into systemic circulation", "result": "10 to 12", "unit": "min"}, {"measurement": "first appearance of GTN after application (lag time)", "setting": "[1]; pharmacokinetic modelling, topical gel", "result": "around 4 minutes"}, {"measurement": "time of peak rate of formation of nitric oxide from GTN", "setting": "[2]", "result": "approximately 100 seconds"}]}
